Assay results reported in ChEMBL document CHEMBL5604061, “ASAP - WNV NS2B-NS3 protease fluorescence dose response” (2024).
“And” between values parts separate entries of the source, which are not always exact repeats. Identical values can stand only once.

The compounds below were run against T1, NS3 (West Nile virus, UniProt K4FQI5) (assay: Functional biochemical assay to identify treatments for viral infectious disease that targets West Nile NS2B-NS3 protease. Utilizing a direct enzyme activity measurement method, reading the fluorescence intensity is used to characterize the relative potency of inhibitors as IC50.).
T1 sequence (K4FQI5 whole entry): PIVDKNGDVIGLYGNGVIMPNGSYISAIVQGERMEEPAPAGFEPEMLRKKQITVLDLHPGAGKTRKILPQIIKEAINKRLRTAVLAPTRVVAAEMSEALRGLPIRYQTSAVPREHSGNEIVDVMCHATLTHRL
Design: species or system NY-99

Going from `Clc1cc([C@@H]2C[C@H]2c2cccc(C3CCNCC3)c2)c2cn[nH]c2c1` to `O=C(Nc1ccc2c(c1)CNCC2)c1cc(Cl)cc2[nH]ncc12`, the IC50 rises from 10.9 µM to 26.3 µM (2.4-fold). The first is the more potent here.

First: O=C(NCC(F)F)[C@H](Nc1ccc2c(c1)CNC2)c1cc(Cl)cc2[nH]ncc12
Second: CCCNC(=O)[C@H](Nc1ccc2c(c1)CNC2)c1cc(Cl)cc2[nH]ncc12
The IC50 of the first is 7.4-fold higher: 2.64 µM for the first, 0.356 µM for the second.

First: O=C(NCC(F)F)[C@H](Nc1ccc2c(c1)CNC2)c1cc(Cl)cc2ccoc12
Second: COc1ccc(Cl)cc1[C@H](Nc1ccc2c(c1)CNC2)C(=O)NCC(F)F
The IC50 of the first is 2.9-fold lower: 0.185 µM for the first, 0.531 µM for the second.

Going from `C[C@]1(O)C(=O)Nc2cc(F)cc(C(=O)Nc3ccc4c(c3)CNC4)c21` to `O=C(Nc1ccc2c(c1)CNC2)c1cc(F)cc2c1CCNC2`, the IC50 falls from 5.58 µM to 1.36 µM (4.1-fold).

`N=C(N)NCCc1ccc(OC(=O)Nc2ccccc2)cc1` and `N=C(N)Nc1ccc(OC(=O)Nc2ccccc2)cc1` cannot be ordered by IC50: over 100 µM for the first, over 100 µM for the second.

`CSCCCNC(=O)[C@H](Nc1ccc2c(c1)CNC2)c1cc(Cl)cc(C2CC2)c1` and `CSCCNC(=O)[C@H](Nc1ccc2c(c1)CNC2)c1cc(Cl)cc(C2CC2)c1` are within 1.5-fold of each other in IC50: 0.573 µM for the first, 0.514 µM for the second.

Going from `COC(=O)c1cc2c(cc1NC(=O)c1cc(F)cc3[nH]ncc13)CNC2` to `C=Cc1cc2c(cc1NC(=O)c1cc(F)cc3[nH]ncc13)CNC2`, the IC50 falls from 1 µM to 0.489 µM (2-fold).

First: C=CC[C@H]1NCc2cc(N[C@H](C(=O)NCC(F)F)c3cc(Cl)cc(C4CC4)c3)ccc21
Second: O=C(NCCC1CC1)[C@H](Nc1ccc2c(c1)CNC2)c1cc(Cl)cc(C2CC2)c1
The IC50 of the first is 2.4-fold lower: 0.289 µM for the first, 0.698 µM for the second. The first is the more potent here.

`NCc1ccc(-c2ncc(OCC3CCNCC3)nc2-c2ccc(-c3ccoc3)cc2)cc1` and `COc1cc(Cc2c(-c3ccc(F)cc3)noc2C)nc(N2CCNCC2)n1` are within 1.5-fold of each other in IC50: 98.4 µM for the first, 67.3 µM for the second.

First: O=C(Nc1ccc2c(c1)CNC2)c1cc(Cl)cc2[nH]c(-c3ccc(F)cc3O)nc12
Second: O=C(Nc1ccc2c(c1)CNC2)c1cc(F)cc2[nH]c(-c3ccccc3F)nc12
The IC50 of the first is higher: over 99.5 µM for the first, 2.39 µM for the second.

First: O=C(Nc1ccc2c(c1)CNC2)c1cc(F)cc2[nH]c(CCc3cccnc3)nc12
Second: O=C(Nc1ccc2c(c1)CNC2)c1cc(F)cc2[nH]c(-c3ccccc3)nc12
The IC50 of the first is 4.8-fold lower: 3.31 µM for the first, 16 µM for the second.

Going from `O=C1Cc2c(cccc2C(=O)Nc2ccc3c(c2)CNC3)N1` to `O=C(Nc1ccc2c(c1)CNC2)c1cccc2sccc12`, the IC50 rises from 6.16 µM to 13.8 µM (2.2-fold).

Going from `Cc1cc(C(=O)Nc2ccc3c(c2)CNC3)cc2nc[nH]c12` to `O=C(Nc1ccc2c(c1)CNC2)c1cc(F)c2[nH]ccc2c1`, the IC50 rises from 12.5 µM to 20.1 µM (1.6-fold).

`O=C(Nc1cc(Cl)cc([C@H](C#CCO)Nc2cccc(-c3nn[nH]n3)c2)c1)OCc1ccccc1` and `N#C[C@H](Nc1cccc(-c2nn[nH]n2)c1)c1cc(Cl)cc(NC(=O)OCc2ccccc2)c1` are within 1.5-fold of each other in IC50: 34.2 µM for the first, 28.7 µM for the second.

First: CCNC(=O)Nc1cc(Cl)cc(C(=O)Nc2cc(C)cc(CN)c2)c1
Second: NCc1cc(/C=C/C(=O)O)cc(NC(=O)c2cc(Cl)cc(NC(=O)OCc3ccccc3)c2)c1
The IC50 of the first is 4.3-fold lower: 19.8 µM for the first, 85 µM for the second. The first is the more potent here.

`O=C(Nc1ccc2c(c1)CNC2)c1cccc(-c2cnco2)c1` and `CC(=O)Nc1cccc(C(=O)Nc2ccc3c(c2)CNC3)c1` are within 1.5-fold of each other in IC50: 38.4 µM for the first, 30.6 µM for the second.

Compared with `NCCc1csc2cc(C(=O)Nc3ccc4c(c3)CNC4)ccc12`, `N#Cc1csc2cc(C(=O)Nc3ccc4c(c3)CNC4)ccc12` is 12-fold higher in IC50: 2.09 µM for the first, 25.2 µM for the second. The first is the more potent here.

Going from `O=C(Nc1ccc2c(c1)CNC2)c1cc(Cl)cc2c1cnn2C[C@H]1CCCO1` to `O=C(Nc1ccc2c(c1)CNC2)c1cc(Cl)cc2c1cnn2C1CCC1`, the IC50 falls from 6.08 µM to 1.7 µM (3.6-fold).

Compared with `Cc1ncc(-c2cc(F)cc(C(=O)Nc3ccc4c(c3)CNC4)c2)s1`, `Cc1ncc(-c2cc(F)cc(C(=O)Nc3ccc4c(c3)CNC4)c2)o1` is 2.9-fold higher in IC50: 2.28 µM for the first, 6.67 µM for the second.

First: O=C(Nc1cc(Cl)cc(C(=O)Nc2ccc3c(c2)CCNC3)c1)OCc1ccccc1
Second: O=C(Nc1cc(Cl)cc(C(=O)Nc2cccc(-n3nn[nH]c3=O)c2)c1)OCc1ccccc1
The IC50 of the first is 1.5-fold higher: 49.5 µM for the first, 32.9 µM for the second. The second is the more potent here.

Going from `O=C(Nc1ccc2c(c1)CNC2)c1cc(Br)cc2[nH]ncc12` to `CN1Cc2ccc(NC(=O)c3cc(Cl)cc4[nH]ncc34)cc2C1`, the IC50 rises from 12.9 µM to over 99.5 µM.

First: Cc1ccc(S(=O)(=O)CNC(=O)[C@H](Nc2ccc3c(c2)CNC3)c2cc(Cl)cc3[nH]ncc23)cc1
Second: O=C(NCc1ccc(F)cc1)[C@H](Nc1ccc2c(c1)CNC2)c1cc(Cl)cc2[nH]ncc12
The IC50 of the first is 11-fold higher: 11.7 µM for the first, 1.08 µM for the second.

First: O=C(Nc1ccc2c(c1)CNC2)c1cc(Cl)cc2[nH]c(-c3ccnn3C3CC3)nc12
Second: O=C(Nc1ccc2c(c1)CNC2)c1cc(Cl)cc2[nH]c(COc3ccccn3)nc12
The IC50 of the first is lower: 18.6 µM for the first, over 99.5 µM for the second.

Going from `CCc1cc(Cl)cc(C(=O)Nc2ccc3c(c2)CNC3)c1` to `C#Cc1cc(Cl)cc(C(=O)Nc2ccc3c(c2)CNC3)c1`, the IC50 falls from over 99.5 µM to 58.6 µM.

First: N#C[C@H](Nc1ccc2c(c1)CNC2)c1cc(Cl)cc2[nH]ncc12
Second: Clc1cc(CNc2ccc3c(c2)CNC3)c2cn[nH]c2c1
The IC50 of the first is 2.3-fold lower: 20 µM for the first, 46.1 µM for the second. The first is the more potent here.

`O=C(Nc1ccc2c(c1)CNC2)c1cc(Cl)cc2ccccc12` and `CC(C)Cn1cc2c(C(=O)Nc3ccc4c(c3)CNC4)cc(Cl)cc2n1` are the same in IC50: 14.7 µM for the first, 14.7 µM for the second.

`O=C(Nc1ccc2c(c1)CNC2)c1cc(Cl)cc2nn(C3CCOCC3)cc12` and `CO[C@H]1C[C@H](n2cc3c(C(=O)Nc4ccc5c(c4)CNC5)cc(Cl)cc3n2)C1` are within 1.5-fold of each other in IC50: 14 µM for the first, 13.9 µM for the second.

Compared with `O=C(Nc1cc2c(c(C3=CC[C@H](O)CC3)c1)CNC2)c1cc(Cl)cc2[nH]ncc12`, `O=C(Nc1cc2c(c(C3=CCS(=O)(=O)CC3)c1)CNC2)c1cc(F)cc2[nH]ncc12` is 4.3-fold lower in IC50: 3.82 µM for the first, 0.892 µM for the second. The second is the more potent here.

`CC(C)c1cc(Br)cc(C(=O)Nc2ccc3c(c2)CNC3)c1` and `N#Cc1cc(C(=O)Nc2ccc3c(c2)CNC3)cc(C(F)(F)F)c1` are within 1.5-fold of each other in IC50: 93.2 µM for the first, 98.1 µM for the second.

`O=C(Nc1ccc2c(c1)CNC2)c1cc(Cl)ccc1SC1CCCC1` and `O=C(Nc1ccc2c(c1)CNC2)c1cc(Cl)cc2c1NCCC2` cannot be ordered by IC50: over 99.5 µM for the first, over 99.5 µM for the second.

Compared with `O=C(Nc1ccc2c(c1)CNC2)c1cc(F)cc(-c2ccncc2)c1`, `O=C(Nc1ccc2c(c1)CNC2)c1cc(F)cc(-c2cn[nH]c2)c1` is 5.3-fold lower in IC50: 3.65 µM for the first, 0.691 µM for the second.

Going from `CCOCC1(c2nc3c(C(=O)Nc4ccc5c(c4)CNC5)cc(Cl)cc3[nH]2)CC1` to `O=C(Nc1ccc2c(c1)CNC2)c1cc(Br)cc2[nH]c([C@H]3CCOC3)nc12`, the IC50 falls from over 99.5 µM to 92.3 µM. The second is the more potent here.

Going from `O=C(Nc1ccc2c(c1)CNC2)c1cc(F)cc(C2=CCOCC2)c1` to `O=C(Nc1ccc2c(c1)CNC2)c1cc(F)cc(/C=C/c2ccccc2)c1`, the IC50 falls from 9.32 µM to 2.91 µM (3.2-fold).

Compared with `O=C(Nc1ccc2c(c1)CNC2)c1cc(F)cc2nn(-c3ccccn3)nc12`, `COc1ccc(-c2nc3c(C(=O)Nc4ccc5c(c4)CNC5)cc(F)cc3[nH]2)nn1` is 1.9-fold lower in IC50: 7.11 µM for the first, 3.68 µM for the second. The second is the more potent here.

Compared with `NCc1cccc(NC(=O)c2cc(Cl)cc3c2cnn3CC2CC2)c1`, `NCc1cccc([C@H]2C[C@@H]2c2cc(Cl)cc(NC(=O)OCc3ccccc3)c2)c1` is 3.6-fold lower in IC50: 68.2 µM for the first, 18.8 µM for the second. The second is the more potent here.

`c1cc(C2CCN(Cc3c[nH]c4ccccc34)CC2)c2ccncc2c1` and `Cc1[nH]c2ccccc2c1CN1CCC(c2c[nH]c3ncccc23)CC1` cannot be ordered by IC50: over 99.5 µM for the first, over 99.5 µM for the second.

`Cc1c(C(=O)Nc2cc([C@H]3CCOC3)ccn2)cc(C2CC2)n1C` and `O=C(NCC1CCOCC1)[C@H](Nc1ccc2c(c1)CNC2)c1cc(Cl)cc2[nH]ncc12` are within 1.5-fold of each other in IC50: 2.68 µM for the first, 2.28 µM for the second.

First: N#Cc1cc(Cl)cc([C@H](C#N)Nc2ccc3c(c2)CNC3)c1
Second: N#Cc1ccc(-c2nc3c(C(=O)Nc4ccc5c(c4)CNC5)cc(F)cc3[nH]2)cc1
The IC50 of the first is 34-fold higher: 98.5 µM for the first, 2.91 µM for the second.

`O=C(Nc1ccc(F)nc1)Oc1ccccc1` and `N=C(N)Nc1ccc(NC(=O)Oc2ccccc2)cc1` cannot be ordered by IC50: over 100 µM for the first, over 100 µM for the second.

`CCCC[C@H](NC(C)=O)C(=O)N[C@H](C(=O)NCc1ccc(C(N)=O)cc1)c1ccc(OCc2ccccc2)cc1` and `CCCCCC(=O)N[C@H](C(=O)N1CCCCC1)c1ccc(OCc2ccccc2)cc1` cannot be ordered by IC50: over 99.5 µM for the first, over 99.5 µM for the second.

Compared with `CCc1cc(C(=O)Nc2cccc(-n3nn[nH]c3=O)c2)sc1-c1ccc(Cl)cc1`, `CNC(=O)[C@H](Nc1cc(Cl)cc(NC(=O)OCc2ccccc2)c1)c1cccc(-c2nn[nH]n2)c1` is higher in IC50: 20.1 µM for the first, over 99.5 µM for the second. The first is the more potent here.

Going from `C=CC[C@H]1NCc2cc(NC(=O)c3cc(F)cc4c3CC(=O)N4)ccc21` to `O=C(Nc1ccc2c(c1)CNC2)c1cc(Br)cc2c1nc1n2CCCC1`, the IC50 rises from 1.92 µM to 31.4 µM (16-fold). The first is the more potent here.

Going from `O=C(NS(=O)(=O)C1CC1)c1cc(Cl)ccc1NS(=O)(=O)c1ccc(Oc2ccccc2Cl)cc1` to `CNC(=O)[C@H](Nc1cc(CN)cc(C(=O)O)c1)c1cc(Cl)cc(C2CC2)c1`, the IC50 falls from 75.6 µM to 1.46 µM (52-fold). The second is the more potent here.

In the case of `O=C(Nc1cc(Br)c2c(c1)CNC2)c1cc(F)cc2[nH]ncc12`, the IC50 is reported as 0.915 µM and 0.957 µM.
In the case of `O=C(Nc1cc(Cl)cc(C(=O)Nc2ccc3c(c2)CNC3)c1)OCc1ccccc1`, the IC50 is reported as 17.7 µM and 48.4 µM and 25.2 µM.
